The text below walks through data of ChEMBL document CHEMBL5303573, “Mapping human microbiome drug metabolism by gut bacteria and their genes” (Nature, 2019).

The nature of data set [1]: The drug is tested on Eubacterium rectale strain: ATCC33656 for biotransformation. The drug concentrations were measured before and after a 12-h incubation by liquid-chromatography-coupled mass spectrometry (LC–MS). The note with it: agathobacter rectalis, 2 µM.
For data set [2] the following is noted: bacteroides fragilis, 12 h, 2 µM.
Description: The drug is tested on Bacteroides fragilis strain: DS-208 for biotransformation. The drug concentrations were measured before and after a 12-h incubation by liquid-chromatography-coupled mass spectrometry (LC–MS)
Data set [3] can be described thus: The drug is tested on Bacteroides ovatus strain: ATCC8483 for biotransformation. The drug concentrations were measured before and after a 12-h incubation by liquid-chromatography-coupled mass spectrometry (LC–MS). As to conditions: 2 µM.
The nature of data set [4]: The drug is tested on Clostridium sp. strain: fecal isolate for biotransformation. The drug concentrations were measured before and after a 12-h incubation by liquid-chromatography-coupled mass spectrometry (LC–MS). The note with it: 2 µM.
Data set [5] is described as follows: The drug is tested on Subdoligranulum variabile strain: DSM15176 for biotransformation. The drug concentrations were measured before and after a 12-h incubation by liquid-chromatography-coupled mass spectrometry (LC–MS). As to conditions: 2 µM.
Data set [6] can be described thus: The drug is tested on Escherichia coli strain: BW25113 for biotransformation. The drug concentrations were measured before and after a 12-h incubation by liquid-chromatography-coupled mass spectrometry (LC–MS). The note with it: 2 µM.
A short description of data set [7]: The drug is tested on Bacteroides finegoldii strain: DSM17565 for biotransformation. The drug concentrations were measured before and after a 12-h incubation by liquid-chromatography-coupled mass spectrometry (LC–MS). As to conditions: 2 µM.
The conditions of data set [8]: bacteroides thetaiotaomicron, 12 h, 2 µM.
Description: The drug is tested on Bacteroides thetaiotaomicron strain: VPI-5482 for biotransformation. The drug concentrations were measured before and after a 12-h incubation by liquid-chromatography-coupled mass spectrometry (LC–MS)
Data set [9] in a line: The drug is tested on Eubacterium hallii strain: DSM3353 for biotransformation. The drug concentrations were measured before and after a 12-h incubation by liquid-chromatography-coupled mass spectrometry (LC–MS). The note with it: anaerobutyricum hallii, 2 µM.
For data set [10] the following is noted: parabacteroides distasonis, 12 h, 2 µM.
Description: The drug is tested on Parabacteroides distasonis strain: ATCC8503 for biotransformation. The drug concentrations were measured before and after a 12-h incubation by liquid-chromatography-coupled mass spectrometry (LC–MS)
The nature of data set [11]: The drug is tested on Bacteroides fragilis strain: ATCC43859 for biotransformation. The drug concentrations were measured before and after a 12-h incubation by liquid-chromatography-coupled mass spectrometry (LC–MS). The note with it: 2 µM.
For data set [12] the following is noted: bacteroides fragilis, 12 h, 2 µM. The source holds these as a separate data set.
Description: The drug is tested on Bacteroides fragilis strain: NCTC 9343 for biotransformation. The drug concentrations were measured before and after a 12-h incubation by liquid-chromatography-coupled mass spectrometry (LC–MS)
Data set [13] in a line: The drug is tested on Bacteroides caccae strain: ATCC43185 for biotransformation. The drug concentrations were measured before and after a 12-h incubation by liquid-chromatography-coupled mass spectrometry (LC–MS). As to conditions: 2 µM.
Data set [14] can be described thus: The drug is tested on Clostridium scindens strain: ATCC35704 for biotransformation. The drug concentrations were measured before and after a 12-h incubation by liquid-chromatography-coupled mass spectrometry (LC–MS). The note with it: 2 µM.
For data set [15] the following is noted: bacteroides thetaiotaomicron, 12 h, 2 µM. This is another data set of the same source.
Description: The drug is tested on Bacteroides thetaiotaomicron strain: 3731 for biotransformation. The drug concentrations were measured before and after a 12-h incubation by liquid-chromatography-coupled mass spectrometry (LC–MS)
Data set [16] in a line: The drug is tested on Clostridium symbiosum strain: ATCC14940 for biotransformation. The drug concentrations were measured before and after a 12-h incubation by liquid-chromatography-coupled mass spectrometry (LC–MS). As to conditions: 2 µM.
Data set [17] in a line: The drug is tested on Blautia luti strain: DSM14534 for biotransformation. The drug concentrations were measured before and after a 12-h incubation by liquid-chromatography-coupled mass spectrometry (LC–MS). Format: ADME. The note with it: 2 µM. Further details: dose 2 uM, timepoint 0 vs 12 hours.
The nature of data set [18]: The drug is tested on Enterobacter cancerogenus strain: ATCC35316 for biotransformation. The drug concentrations were measured before and after a 12-h incubation by liquid-chromatography-coupled mass spectrometry (LC–MS). As to conditions: 2 µM.
A short description of data set [19]: The drug is tested on Bifidobacterium breve strain: DSM20213 for biotransformation. The drug concentrations were measured before and after a 12-h incubation by liquid-chromatography-coupled mass spectrometry (LC–MS). The note with it: 2 µM.
The nature of data set [20]: The drug is tested on Bacteroides cellulosilyticus strain: DSM14838 for biotransformation. The drug concentrations were measured before and after a 12-h incubation by liquid-chromatography-coupled mass spectrometry (LC–MS). The note with it: 2 µM.

As for `COc1cc2nc(N(C)CCCNC(=O)C3CCCO3)nc(N)c2cc1OC` (centres undefined) [ALFUZOSIN], the “Bacterial Biotransformation” value in data set [1], in [2], in [3], in data set [4], in [5] and in data set [6] was “Compound NOT metabolized” each time. Further, the “Bacterial Biotransformation” value in data set [7], in data set [8], in data set [9], in data set [10], in data set [11] and in data set [12] was “Compound NOT metabolized” in each case. Also, the “Bacterial Biotransformation” value in [13], in data set [14], in data set [15], in data set [16] and in data set [17] was “Compound NOT metabolized” throughout.

Take `O=C1CC2(CCCC2)CC(=O)N1CCCCN1CCN(c2ncccn2)CC1` [BUSPIRONE]: the “Bacterial Biotransformation” value in [1], in [2], in data set [3], in [4], in data set [5] and in [7] was “Compound NOT metabolized” each time. The “Bacterial Biotransformation” value in data set [8], in data set [9], in data set [10], in data set [11], in data set [12] and in data set [13] was “Compound NOT metabolized” throughout. The “Bacterial Biotransformation” value in data set [14], in data set [15], in [16] and in data set [17] was “Compound NOT metabolized” throughout.

On to `CC(C)c1nc(N(C)S(C)(=O)=O)nc(-c2ccc(F)cc2)c1/C=C/[C@@H](O)C[C@@H](O)CC(=O)[O-].CC(C)c1nc(N(C)S(C)(=O)=O)nc(-c2ccc(F)cc2)c1/C=C/[C@@H](O)C[C@@H](O)CC(=O)[O-].[Ca+2]` [ROSUVASTATIN CALCIUM], for which the “Bacterial Biotransformation” value in [1], in data set [18], in data set [2], in data set [4], in data set [6] and in [7] was “Compound NOT metabolized” in each case. Also, the “Bacterial Biotransformation” value in data set [19], in data set [9], in data set [10], in data set [11], in data set [12] and in [20] was “Compound NOT metabolized” each time. The “Bacterial Biotransformation” value in [14], in [15], in [16] and in data set [17] was “Compound NOT metabolized” throughout.

For `N#Cc1ccc2c(c1)N(CCCN1CCC(O)CC1)c1ccccc1S2` [PERICIAZINE], the “Bacterial Biotransformation” value is “Compound NOT metabolized” in [1]; “Compound NOT metabolized” in [3]; “Compound NOT metabolized” in data set [5]; “Compound NOT metabolized” in data set [6]; “Compound metabolized” in [7]; “Compound NOT metabolized” in data set [19]. For the same molecule, the “Bacterial Biotransformation” value in data set [9] is listed as “Compound NOT metabolized”; in data set [10] it was “Compound metabolized”; in data set [12] it was “Compound NOT metabolized”; in data set [13] it was “Compound metabolized”; in data set [14] it was “Compound NOT metabolized”; in [15] it was “Compound metabolized”. For the same molecule, the “Bacterial Biotransformation” value in [16] and in [17] was “Compound NOT metabolized” each time.

Take `O=P(O)(O)O.c1ccc(CN(CC2=NCCN2)c2ccccc2)cc1` [ANTAZOLINE PHOSPHATE]: the “Bacterial Biotransformation” value in [1], in data set [2], in [3], in data set [4], in [5] and in data set [7] was “Compound NOT metabolized” in each case. Also, the “Bacterial Biotransformation” value in data set [8], in data set [9], in [11], in [12], in [13] and in data set [14] was “Compound NOT metabolized” throughout. In addition, the “Bacterial Biotransformation” value in data set [16] and in data set [17] was “Compound NOT metabolized” in each case.

With `CN1C(C(=O)Nc2ccccn2)=C(O)c2sccc2S1(=O)=O` [TENOXICAM], the “Bacterial Biotransformation” value in data set [1], in data set [3], in data set [4], in [5], in [6] and in data set [19] was “Compound NOT metabolized” each time. Besides, the “Bacterial Biotransformation” value in data set [8], in data set [9], in [11], in [13], in data set [15] and in [16] was “Compound NOT metabolized” in each case. For the same molecule, the “Bacterial Biotransformation” value in [17] is “Compound NOT metabolized”.

As for `Br.CN1CCC[C@@H]1Cc1c[nH]c2ccc(CCS(=O)(=O)c3ccccc3)cc12` [ELETRIPTAN HYDROBROMIDE], the “Bacterial Biotransformation” value in [1], in data set [2], in [3], in data set [4], in data set [5] and in [7] was “Compound NOT metabolized” throughout. Further, the “Bacterial Biotransformation” value in data set [9], in [10], in data set [11], in data set [12], in data set [13] and in data set [14] was “Compound NOT metabolized” throughout. The “Bacterial Biotransformation” value in data set [16] and in [17] was “Compound NOT metabolized” throughout.

As to `COC1=CC(=O)C[C@@H](C)[C@]12Oc1c(Cl)c(OC)cc(OC)c1C2=O` [GRISEOFULVIN], the “Bacterial Biotransformation” value in data set [1] is given as “Compound NOT metabolized”; in data set [2] it was “Compound metabolized”; in data set [4], “Compound metabolized”; in data set [5], “Compound NOT metabolized”; in data set [7] it was “Compound NOT metabolized”; in data set [8], “Compound metabolized”. For the same molecule, the “Bacterial Biotransformation” value in [9] is recorded as “Compound NOT metabolized”; in data set [10] it was “Compound metabolized”; in [11], “Compound metabolized”; in [12] it was “Compound metabolized”; in data set [13], “Compound NOT metabolized”; in data set [14], “Compound NOT metabolized”. In addition, the “Bacterial Biotransformation” value in [15], in data set [16] and in [17] was “Compound NOT metabolized” in each case.
